Patent publication US7879858B2, “Substituted tetrahydropyrrolopyrazine compounds and the use thereof in pharmaceutical compositions” (Gruenenthal GmbH, priority 2006, dated 2011)

What was measured:
Serotonin reuptake = target: T1, Serotonin reuptake (Rattus norvegicus, UniProt P31652); experiment: Inhibition of 5HT (serotonin) uptake in rat brain synaptosomes; format: biochemical; details: synaptosomes from rat brain; for inhibition at 10 µM: 10 μmol
T1 construct: synaptosomes are freshly isolated from areas of the rat brain; from tissue; host or cells: rat brain synaptosomes (P2 fraction)
T1 sequence (P31652 whole entry): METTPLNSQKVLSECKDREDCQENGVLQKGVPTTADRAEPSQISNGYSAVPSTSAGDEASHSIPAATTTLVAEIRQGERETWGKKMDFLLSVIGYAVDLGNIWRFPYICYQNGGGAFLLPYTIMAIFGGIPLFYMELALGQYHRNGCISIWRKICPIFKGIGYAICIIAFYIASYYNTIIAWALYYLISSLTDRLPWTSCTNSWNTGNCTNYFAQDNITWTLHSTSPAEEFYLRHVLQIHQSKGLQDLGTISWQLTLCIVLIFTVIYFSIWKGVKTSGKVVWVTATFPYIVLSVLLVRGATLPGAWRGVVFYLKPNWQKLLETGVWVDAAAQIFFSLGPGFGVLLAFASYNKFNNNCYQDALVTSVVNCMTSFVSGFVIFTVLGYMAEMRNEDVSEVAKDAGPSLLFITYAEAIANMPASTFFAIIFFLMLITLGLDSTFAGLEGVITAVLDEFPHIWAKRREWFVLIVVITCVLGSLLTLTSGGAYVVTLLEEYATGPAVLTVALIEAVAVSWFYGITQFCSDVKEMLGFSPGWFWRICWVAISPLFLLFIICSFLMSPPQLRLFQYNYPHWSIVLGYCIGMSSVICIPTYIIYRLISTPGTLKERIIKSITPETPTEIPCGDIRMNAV
Method: (§1) Biological Data Inhibition of NA and 5HT Uptake
(§2) In order to be able to carry out these in vitro studies, synaptosomes are freshly isolated from areas of the rat brain. In each case a so-called “P2” fraction prepared in accordance with the instructions of Gray and Whittaker (E. G. Gray and V. P. Whittaker (1962) J. Anat. 76, 79-88) is prepared. For the NA uptake, these vesicular particles are isolated from the hypothalamus of male rat brains. A detailed description of the method can be found in the literature (M. Ch. Frink, H.-H. Hennies, W. Englberger, M. Haurand and B. Wilffert (1996) Arzneim.-Forsch./Drug Res. 46 (III), 11, 1029-1036).

NA reuptake = experiment: Inhibition of NA (noradrenaline) uptake in rat hypothalamus synaptosomes; format: biochemical; details: synaptosomes from hypothalamus of male rat brains
Method: as §1, §2

| inhibition at 10 µM (Serotonin reuptake) | Serotonin reuptake % inhibition [10 μmol] (Serotonin reuptake) | Structure (SMILES) | NA reuptake % inhibition [10 μmol] (NA reuptake) |
| --- | --- | --- | --- |
| 65% |  | O=C(c1ccccc1F)N1CCn2cccc2C1c1ccc(Cl)c(Cl)c1 (stereo not shown) [Example 63, [1-(3,4-dichloro-phenyl)-3,4-dihydro-1H-pyrrolo[1,2-a]pyrazin-2-yl]-(2-fluoro-phenyl)-methanone] | 71% |
| 58% |  | O=C(c1cccc(F)c1)N1CCn2cccc2C1c1cccc(Cl)c1 (stereo not shown) [Example 43, [1-(3-chloro-phenyl)-3,4-dihydro-1H-pyrrolo[1,2-a]pyrazin-2-yl]-(3-fluoro-phenyl)-methanone] | 66% |
| 34% |  | Cc1ccccc1C1c2cccn2CCN1C(=O)c1ccc2c(c1)OCO2 (stereo not shown) [Example 12, benzo[d][1,3]dioxol-5-yl(1-o-tolyl-3,4-dihydropyrrolo[1,2-a]pyrazin-2(1H)-yl)methanone] | 22% |
|  | 46% | COc1ccccc1C(=O)N1CCn2cccc2C1c1cccc(Cl)c1 (stereo not shown) [Example 39, (1-(3-chlorophenyl)-3,4-dihydropyrrolo[1,2-a]pyrazin-2-(1H)-yl)(2-methoxyphenyl)methanone] | 43% |
| 28% |  | O=C(/C=C/c1ccccc1)N1CCn2cccc2C1c1cccs1 (stereo not shown) [Example 72, 3-phenyl-1-(1-(thiophen-2-yl)-3,4-dihydropyrrolo[1,2-a]pyrazin-2(1H)-yl)prop-2-en-1-one] | 23% |
| 82% |  | COc1ccccc1C(=O)N1CCn2cccc2C1c1ccccc1OC (stereo not shown) [Example 4, (2-methoxy-phenyl)-[1-(2-methoxy-phenyl)-3,4-dihydro-1H-pyrrolo[1,2-a]pyrazin-2-yl]-methanone] | 13% |
| 32% |  | O=C(c1ccc(F)cc1)N1CCn2cccc2C1c1ccccc1 (stereo not shown) [Example 20, (4-fluorophenyl)(1-phenyl-3,4-dihydropyrrolo[1,2-a]pyrazin-2(1H)-yl)methanone] | 33% |
| 54% |  | Cc1cccc(C2c3cccn3CCN2C(=O)c2cccc(F)c2)c1 (stereo not shown) [Example 16, (3-fluoro-phenyl)-(1-m-tolyl-3,4-dihydro-1H-pyrrolo[1,2-a]pyrazin-2-yl)-methanone] | 49% |
| 53% |  | O=C(CCC1CCCCC1)N1CCn2cccc2C1c1cccs1 (stereo not shown) [Example 86, 3-cyclohexyl-1-(1-(thiophen-2-yl)-3,4-dihydropyrrolo[1,2-a]pyrazin-2(1H)-yl)propan-1-one] | 19% |
| 56% |  | O=C(c1ccc2c(c1)OCO2)N1CCn2cccc2C1c1cccs1 (stereo not shown) [Example 56, benzo[1,3]dioxol-5-yl-(1-thiophen-2-yl-3,4-dihydro-1H-pyrrolo[1,2-a]pyrazin-2-yl)-methanone] | 35% |
| 51% |  | COc1cccc(C2c3cccn3CCN2C(=O)c2ccco2)c1 (stereo not shown) [Example 30, furan-2-yl(1-(3-methoxyphenyl)-3,4-dihydropyrrolo[1,2-a]pyrazin-2(1H)-yl)methanone] | 16% |
| 31% |  | O=C(C1CC1)N1CCn2cccc2C1c1cccs1 (stereo not shown) [Example 59, cyclopropyl(1-(thiophen-2-yl)-3,4-dihydropyrrolo[1,2-a]pyrazin-2(1H)-yl)methanone] | 10% |
| 37% |  | Cc1ccccc1C(=O)N1CCn2cccc2C1c1ccccc1F (stereo not shown) [Example 8, (1-(2-fluorophenyl)-3,4-dihydropyrrolo[1,2-a]pyrazin-2(1H)-yl)(o-tolyl)methanone] | 18% |
| 37% |  | Cc1ccccc1C(=O)N1CCn2cccc2C1c1cccc(Cl)c1 (stereo not shown) [Example 41, (1-(3-chlorophenyl)-3,4-dihydropyrrolo[1,2-a]pyrazin-2(1H)-yl)(o-tolyl)methanone] | 35% |
| 34% |  | COc1ccccc1C(=O)N1CCn2cccc2C1c1ccc(Cl)cc1 (stereo not shown) [Example 29, (1-(4-chlorophenyl)-3,4-dihydropyrrolo[1,2-a]pyrazin-2(1H)-yl)(2-methoxyphenyl)methanone] | 21% |
| 47% |  | COc1ccccc1C1c2cccn2CCN1C(=O)c1ccccc1F (stereo not shown) [Example 49, (2-fluorophenyl)(1-(2-methoxyphenyl)-3,4-dihydropyrrolo[1,2-a]pyrazin-2(1H)-yl)methanone] | 12% |
| 40% |  | Cc1ccc(C2c3cccn3CCN2C(=O)c2ccccc2F)cc1 (stereo not shown) [Example 69, (2-fluorophenyl)(1-p-tolyl-3,4-dihydropyrrolo[1,2-a]pyrazin-2(1H)-yl)methanone] | 12% |
| 52% |  | O=C(c1ccc(F)cc1)N1CCn2cccc2C1c1cccc(Cl)c1 (stereo not shown) [Example 46, [1-(3-chloro-phenyl)-3,4-dihydro-1H-pyrrolo[1,2-a]pyrazin-2-yl]-(4-fluoro-phenyl)-methanone] | 50% |
| 42% |  | O=C(c1cccc(F)c1)N1CCn2cccc2C1c1ccccc1 (stereo not shown) [Example 23, (3-fluorophenyl)(1-phenyl-3,4-dihydropyrrolo[1,2-a]pyrazin-2(1H)-yl)methanone] | 41% |
| 28% |  | COc1ccccc1C(=O)N1CCn2cccc2C1c1ccccc1 (stereo not shown) [Example 27, (2-methoxyphenyl)(1-phenyl-3,4-dihydropyrrolo[1,2-a]pyrazin-2(1H)-yl)methanone] | 15% |
| 66% |  | O=C(c1ccccc1F)N1CCn2cccc2C1c1ccc2c(c1)OCCO2 (stereo not shown) [Example 35, [1-(2,3-dihydro-benzo[1,4]dioxin-6-yl)-3,4-dihydro-1H-pyrrolo[1,2-a]pyrazin-2-yl]-(2-fluoro-phenyl)-methanone] | 43% |
| 38% |  | Cc1ccccc1C(=O)N1CCn2cccc2C1c1ccc(F)cc1 (stereo not shown) [Example 75, (1-(4-fluorophenyl)-3,4-dihydropyrrolo[1,2-a]pyrazin-2(1H)-yl)(o-tolyl)methanone] | 17% |
| 32% |  | O=C(C1CCCC1)N1CCn2cccc2C1c1ccccc1 (stereo not shown) [Example 24, cyclopentyl(1-phenyl-3,4-dihydropyrrolo[1,2-a]pyrazin-2(1H)-yl)methanone] | 44% |
| 18% |  | O=C(c1cccs1)N1CCn2cccc2C1c1ccccc1 (stereo not shown) [Example 22, (1-phenyl-3,4-dihydropyrrolo[1,2-a]pyrazin-2(1H)-yl)(thiophen-2-yl)methanone] | 33% |
| 32% |  | Cc1ccccc1C(=O)N1CCn2cccc2C1c1ccccc1 (stereo not shown) [Example 26, (1-phenyl-3,4-dihydropyrrolo[1,2-a]pyrazin-2(1H)-yl)(o-tolyl)methanone] | 23% |
| 55% |  | Cc1cccc(C2c3cccn3CCN2C(=O)c2ccc3c(c2)OCO3)c1 (stereo not shown) [Example 18, benzo[1,3]dioxol-5-yl-(1-m-tolyl-3,4-dihydro-1H-pyrrolo[1,2-a]pyrazin-2-yl)-methanone] | 40% |
